Read-outs that look alike come from different tables or passages of the source.
Key:
[1] = system: NCI-H358 cells (express KRas G12C), Phospho-ERK; assay: Cellular inhibition of KRas G12C: Phospho-ERK in NCI-H358 cells; type: cell-based; settings: Homo sapiens, pERK(Thr202/Tyr204) normalized with GAPDH, NCI-H358 cells, 3 hours, read-out: IC50
Summary of the method: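 IC50 derived by 4-parameter fit of GAPDH-normalized pERK(Thr202/Tyr204) signal, as percent of DMSO control. Signal came from in-cell immunodetection with infrared secondaries after 3 h compound exposure of KRas G12C NCI-H358 cells at 0.5% DMSO.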

[2] = molecular target: KRas G12C (Homo sapiens, UniProt P01116, C118S/C51S/C80L/G12C); assay: KRas G12C Modification Assay (LCMS detection of covalent adduct); type: binding; settings: normalized percent of control; tested at 5 μM concentration for 3 hours
Summary of the method: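 Cys-light KRas G12C mutant protein incubated with compound in K-Ras assay buffer, reactions quenched at set time points with 25 mM acetic acid and analysed by intact-protein LC/MS on a C-3 column. Deconvoluted mass heights expressed as percent of control (POC) relative to compound-free protein.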

| SMILES | POC [2] | IC50 ([1]; NCI-H358, 3 h) [nM] | IC50 [1] [nM] |
| --- | --- | --- | --- |
| C=CC(=O)N1CCN(c2nc(OC[C@@H]3CCCN3C)nc3c2CCN(c2cccc(OC)c2C)C3)C[C@@H]1CC#N [Example 324, 2-[(2S)-4-[7-(3-methoxy-2-methyl-phenyl)-2-[[(2S)-1-methylpyrrolidin-2-yl]methoxy]-6,8-dihydro-5H-pyrido[3,4-d]pyrimidin-4-yl]-1-prop-2-enoyl-piperazin-2-yl]acetonitrile] | C (“C”>50% POC) | 0.1 to 1000 |  |
| C=CC(=O)N1CCN(c2nc(OC[C@@H]3C[C@@H](F)CN3C(C)C)nc3c2CCN(c2cncc(F)c2C(F)(F)F)C3)C[C@@H]1CC#N [Example 386, 2-((S)-1-acryloyl-4-(2-(((2S,4R)-4-fluoro-1-isopropylpyrrolidin-2-yl)methoxy)-7-(5-fluoro-4-(trifluoromethyl)pyridin-3-yl)-5,6,7,8-tetrahydropyrido[3,4-d]pyrimidin-4-yl)piperazin-2-yl)acetonitrile] | C (“C”>50% POC) |  | 0.1 to 1000 |
| C=CC(=O)N1CCN(c2nc(OCCCN3CCOCC3)nc3c2CCN(c2cc(O)ccc2C)C3)CC1 [Example 105, 1-(4-(7-(5-hydroxy-2-methylphenyl)-2-(3-morpholinopropoxy)-5,6,7,8-tetrahydropyrido[3,4-d]pyrimidin-4-yl)piperazin-1-yl)prop-2-en-1-one] | B (“B”>25% POC−≤50% POC) |  | > 1000 |
| C=CC(=O)N1CCN(c2nc(OC[C@H]3CCCN3C)nc3c2CCN(c2cccc(Cl)c2C(F)(F)F)C3)C[C@@H]1CC#N [Example 319, 2-((S)-1-acryloyl-4-(7-(3-chloro-2-(trifluoromethyl)phenyl)-2-(((R)-1-methylpyrrolidin-2-yl)methoxy)-5,6,7,8-tetrahydropyrido[3,4-d]pyrimidin-4-yl)piperazin-2-yl)acetonitrile] | C (“C”>50% POC) | 0.1 to 1000 |  |
| C=CC(=O)N1CCN(c2nc(OCCCN3CCOCC3)nc3c2CCN(c2cc(O)ccc2F)C3)CC1 [Example 42, 1-(4-(7-(2-fluoro-5-hydroxyphenyl)-2-(3-morpholinopropoxy)-5,6,7,8-tetrahydropyrido[3,4-d]pyrimidin-4-yl)piperazin-1-yl)prop-2-en-1-one] | A (“A”≤25% POC) |  | > 1000 |
| CN1CCC[C@H]1COc1nc2c(c(N3CCN(C(=O)/C=C/CN4CCCCC4)[C@@H](CC#N)C3)n1)CCN(c1cccc3ccccc13)C2 [Example 236, 2-((S)-4-(2-(((S)-1-methylpyrrolidin-2-yl)methoxy)-7-(naphthalen-1-yl)-5,6,7,8-tetrahydropyrido[3,4-d]pyrimidin-4-yl)-1-(E-4-(piperidin-1-yl)but-2-enoyl)piperazin-2-yl)acetonitrile] | C (“C”>50% POC) | 0.1 to 1000 |  |
| C=CC(=O)N1CC2(C1)CN(c1ncnc3c1CC(=O)N(c1cc(O)cc4ccccc14)C3)C2 [Example 114, 4-(6-acryloyl-2,6-diazaspiro[3.3]heptan-2-yl)-7-(3-hydroxynaphthalen-1-yl)-7,8-dihydropyrido[3,4-d]pyrimidin-6(5H)-one] | B (“B”>25% POC−≤50% POC) |  | > 1000 |
| C=CC(=O)N1CCN(c2nc(OCCN3CCCCC3)nc3c2CCN(c2cccc4cccc(Cl)c24)C3)C[C@@H]1CC#N [Example 362, 2-[(2S)-4-[7-(8-chloro-1-naphthyl)-2-[2-(1-piperidyl)ethoxy]-6,8-dihydro-5H-pyrido[3,4-d]pyrimidin-4-yl]-1-prop-2-enoyl-piperazin-2-yl]acetonitrile] | C (“C”>50% POC) | 0.1 to 1000 |  |
| C=CC(=O)N1CCN(c2nc(OC[C@@H]3C[C@H](F)CN3C)nc3c2CCN(c2cccc4ccccc24)C3)CC1CC#N (stereo partly drawn) [Example 221, 2-(1-acryloyl-4-(2-(((2S,4S)-4-fluoro-1-methylpyrrolidin-2-yl)methoxy)-7-(naphthalen-1-yl)-5,6,7,8-tetrahydropyrido[3,4-d]pyrimidin-4-yl)piperazin-2-yl)acetonitrile] | C (“C”>50% POC) | 0.1 to 1000 |  |
| C=CC(=O)N1CCN(c2nc(OCCCN3CCOCC3)nc3c2CCN(c2c(C)c(O)cc4ccccc24)C3)CC1 [Example 173, 1-(4-(7-(3-hydroxy-2-methylnaphthalen-1-yl)-2-(3-morpholinopropoxy)-5,6,7,8-tetrahydropyrido[3,4-d]pyrimidin-4-yl)piperazin-1-yl)prop-2-en-1-one] | C (“C”>50% POC) |  | > 1000 |
| C=CC(=O)N1CCN(c2nc(OC[C@@H]3CCN(C)C3)nc3c2CCN(c2cccc4cccc(Cl)c24)C3)C[C@@H]1CC#N [Example 361, 2-[(2S)-4-[7-(8-chloro-1-naphthyl)-2-[[(3R)-1-methylpyrrolidin-3-yl]methoxy]-6,8-dihydro-5H-pyrido[3,4-d]pyrimidin-4-yl]-1-prop-2-enoyl-piperazin-2-yl]acetonitrile] | C (“C”>50% POC) | 0.1 to 1000 |  |
| CC(C)=CC(=O)N1CCN(c2nc(OC[C@@H]3CCCN3C)nc3c2CCN(c2cccc4ccccc24)C3)CC1CC#N (stereo partly drawn) [Example 282, 2-(1-(3-methylbut-2-enoyl)-4-(2-(((S)-1-methylpyrrolidin-2-yl)methoxy)-7-(naphthalen-1-yl)-5,6,7,8-tetrahydropyrido[3,4-d]pyrimidin-4-yl)piperazin-2-yl)acetonitrile] | A (“A”≤25% POC) | > 1000 |  |
| C=CC(=O)N1CCN(c2nc(OC[C@@H]3CCCN3C)nc3c2CCN(c2cccc4ccccc24)C3)C[C@H]1C [Example 201, 1-((R)-2-methyl-4-(2-(((S)-1-methylpyrrolidin-2-yl)methoxy)-7-(naphthalen-1-yl)-5,6,7,8-tetrahydropyrido[3,4-d]pyrimidin-4-yl)piperazin-1-yl)prop-2-en-1-one] | B (“B”>25% POC−≤50% POC) | > 1000 |  |

Further lines, with some results ahead:

| POC [2] | SMILES | IC50 ([1]; NCI-H358, 3 h) [nM] | IC50 [1] [nM] |
| --- | --- | --- | --- |
| C (“C”>50% POC) | C=CC(=O)N1CCN(c2nc(OC[C@@H]3CCCN3CC)nc3c2CCN(c2cc(O)cc4ccccc24)C3)CC1 [Example 197, (S)-1-(4-(2-((1-ethylpyrrolidin-2-yl)methoxy)-7-(3-hydroxynaphthalen-1-yl)-5,6,7,8-tetrahydropyrido[3,4-d]pyrimidin-4-yl)piperazin-1-yl)prop-2-en-1-one] | 0.1 to 1000 |  |
| C (“C”>50% POC) | C=CC(=O)N1CCN(c2nc(OCC3CCN(CCOC)C3)nc3c2CCN(c2cc(O)cc4ccccc24)C3)CC1 (centres unmarked) [Example 103, 1-(4-(7-(3-hydroxynaphthalen-1-yl)-2-((1-(2-methoxyethyl)pyrrolidin-3-yl)methoxy)-5,6,7,8-tetrahydropyrido[3,4-d]pyrimidin-4-yl)piperazin-1-yl)prop-2-en-1-one] | 0.1 to 1000 |  |
| C (“C”>50% POC) | C=CC(=O)N1CCN(c2nc(OCCN(C)C)nc3c2CCN(c2cc(O)cc4ccccc24)C3C)CC1 (centres unmarked) [Example 47, 1-(4-(2-(2-(dimethylamino)ethoxy)-7-(3-hydroxynaphthalen-1-yl)-8-methyl-5,6,7,8-tetrahydropyrido[3,4-d]pyrimidin-4-yl)piperazin-1-yl)prop-2-en-1-one] |  | > 1000 |
| C (“C”>50% POC) | C=CC(=O)N1CCN(c2nc(OCCCN3CCCOCC3)nc3c2CCN(c2cc(O)cc4ccccc24)C3)CC1 [Example 101, 1-(4-(2-(3-(1,4-oxazepan-4-yl)propoxy)-7-(3-hydroxynaphthalen-1-yl)-5,6,7,8-tetrahydropyrido[3,4-d]pyrimidin-4-yl)piperazin-1-yl)prop-2-en-1-one] | 0.1 to 1000 |  |
| C (“C”>50% POC) | C=CC(=O)N1CCN(c2nc(OC[C@@H]3CCCCN3C)nc3c2CCN(c2cc(O)cc4ccccc24)C3)CC1 [Example 196, (S)-1-(4-(7-(3-hydroxynaphthalen-1-yl)-2-((1-methylpiperidin-2-yl)methoxy)-5,6,7,8-tetrahydropyrido[3,4-d]pyrimidin-4-yl)piperazin-1-yl)prop-2-en-1-one] | 0.1 to 1000 |  |
| A (“A”≤25% POC) | C=CC(=O)N1CCN(c2nc(O[C@H](C)CN(C)C)nc3c2CCN(c2cc(O)ccc2OC)C3)CC1 [Example 94, (R)-1-(4-(2-((1-(dimethylamino)propan-2-yl)oxy)-7-(5-hydroxy-2-methoxyphenyl)-5,6,7,8-tetrahydropyrido[3,4-d]pyrimidin-4-yl)piperazin-1-yl)prop-2-en-1-one] |  | > 1000 |
| A (“A”≤25% POC) | C=CC(=O)N1CCN(c2nc(N3CCOCC3)nc3c2CCN(c2cc(O)cc4ccccc24)C3)CC1 [Example 118, 1-(4-(7-(3-hydroxynaphthalen-1-yl)-2-morpholino-5,6,7,8-tetrahydropyrido[3,4-d]pyrimidin-4-yl)piperazin-1-yl)prop-2-en-1-one] | > 1000 |  |
| C (“C”>50% POC) | C=CC(=O)N1CCN(c2nc(OC[C@@H]3CCN(C)C3)nc3c2CCN(c2cc(O)cc4ccccc24)C3)C[C@@H]1CC#N [Example 350, 2-((S)-1-acryloyl-4-(7-(3-hydroxynaphthalen-1-yl)-2-(((R)-1-methylpyrrolidin-3-yl)methoxy)-5,6,7,8-tetrahydropyrido[3,4-d]pyrimidin-4-yl)piperazin-2-yl)acetonitrile] | 0.1 to 1000 |  |
| A (“A”≤25% POC) | C=CC(=O)N1CCN(c2ncnc3c2CCN(c2cccc4ccc(O)cc24)C3)CC1 [Example 2, 1-(4-(7-(7-hydroxynaphthalen-1-yl)-5,6,7,8-tetrahydropyrido[3,4-d]pyrimidin-4-yl)piperazin-1-yl)prop-2-en-1-one] | > 1000 |  |

Reference: patent US10125134B2 (Mirati Therapeutics, Inc., priority 2016, dated 2018)
